# Earlier results, collected in patent US20130195996A1, “METHOD OF PRODUCING PLEURODESIS” (CAREFUSION 2200, INC., priority 2010, published 2013).
# Columns and labels:
# rabbits [1] = tested on: rabbits
# rabbits [2] = details: single dosage administration of 0.1% silver nitrate (Marchi et al. 2005)
# [3] = known methods, high dosages such as 10% concentration (typically 200 mg AgNO3), single dosage
# [4] = 2 mL of 0.25% silver nitrate (Vargas et al. 2001)
smiles,measurement,setting,value
O=[N+]([O-])[O-].[Ag+] [silver nitrate],persistence of pleurodesis result,rabbits [1]; [4],persists for at least a year
same,pleurodesis result,rabbits [1]; [4],relatively superior pleurodesis result
same,pleurodesis,rabbits [1]; intrapleural injection of 0.5% silver nitrate (Texeira et al. 2003),significant pleurodesis
same,sclerosing effects,rabbits [1]; single intrapleural injection of 0.25% silver nitrate (Texeira et al. 2003),no sclerosing effects
same,pleural inflammation,rabbits [2],relatively intense pleural inflammation
same,adverse effects associated with injection into the pleural space,[3],"severe pain, fever, and relatively large amount of effusion"
